Consider one molecule from patent publication US5270206A, “Enzymatic resolution of endo-bicyclo[2.2.1]heptan-2-ol and derived pharmaceutical agents” (Pfizer Inc., priority 1992, dated 1993).

Test [1] has as its system eosinophil migration into sensitized lung tissue. The experiment in a line: Inhibition of eosinophil migration into sensitized lung tissue challenged with antigen in guinea pigs (EPO response in lung lavage). Type of test: in vivo, guinea pig. As to conditions: Cavia porcellus, po, guinea pigs sensitized with anti-OA IgG1, dosed P.O., ovalbumin aerosol, lung lavage after 18 hours, read-out: ED50 (inhibition of specific EPO response due to antigen challenge). Here is the method: Normal Hartley guinea pigs (300-350 grams) delivered from Charles River Laboratories were housed 5-7 days before sensitization. Guinea pigs were then sensitized with 0.5 mg/kg anti-OA IgGl or saline as control. After 48-72 hours, guinea pigs were dosed P.O. in groups of six animals each with compounds at up to 32 mg/kg using 2% Tween 80 as vehicle. After 1-1.5 hours the animals were injected i.p. with 5 mg/kg pyrilamine. Thirty minutes following pyrilamine administration, animals were exposed to 10 minutes of a 0.1% ovalbumin (OA) aerosol followed by a 15 minute cloud decay period in a Tri-R Airborne Infection Apparatus (Compression air flow=20 L/min, main air flow=8.4 L/min). Guinea pigs were removed from the apparatus and caged for 18 hours prior to sacrifice and the following lung lavage procedure. […]
The aliquoted sample with Triton was diluted with 1 ml PBS/0.1% Triton buffer (pH 7.0). […] The O.D. of the mixture was measured at 490 nm, with background O.D. (blank tube) subtracted out.
Duplicate O.D. readings were averaged to obtain a single value for each animal. Average O.D. +/- standard error is calculated using the six obtained values within each group of animals. Specific EPO response due to antigen challenge is calculated by: […]
Percent inhibition of specific EPO response due to drug pretreatment is calculated by: [formula]

The subject of test [2] is antigen-induced skin edema. The experiment in a line: Inhibition of Skin Edema in Guinea Pigs Sensitized to Ovalbumin. Type of test: in vivo, guinea pig. To be noted: 32 mg/Kg oral, two guinea pigs, intradermal ovalbumin challenge one hour after dosing, read after twenty minutes. Here is the method:
Four guinea pigs (Hartley, male, 350-400 g) were sensitized with anti-ovalbumin IgGI antibody. Two guinea pigs were orally dosed with 32 mg/Kg of the test compound and two other guinea pigs were dosed with vehicle (2% Tween-80). One-hour after dosing, each guinea pig was injected intraveneously with 1 ml of Evan Blue (7 mg/ml) and then his skin was challenged intradermally with 0.1 ml of ovalbumin (0.1%) or PBS. Twenty minutes after challenge, the skin was removed and skin edematous site (circular blue spots at challenge sites) was examined visually.

The test system of test [3] is phosphodiesterases prepared from cerebral cortices of rats. To be noted: phosphodiesterases from rat cerebral cortices; noted at page 25 of W087/06576; cited from earlier work.
The target in test [4] is PDEIV. The experiment in a line: Inhibition of Pulmonary Phosphodiesterase (PDEIV). Type of test: biochemical. As to conditions: guinea pig lung PDEIV, 1 μM [3H]-cAMP, 37° C., 10 minutes; read-out: IC50 (concentration inhibiting 50% of specific hydrolysis of [3H]cAMP to [3H]5'AMP). As to the method:
Lung tissue from guinea pigs was placed in a homogenization buffer solution (20 mM Bistris, 5 mM 2-mercaptoethanol, 2 mM benzamidine, 2 mM EDTA, 50 mM sodium acetate, pH 6.5) at a concentration of 10 ml/gm of tissue. The tissue was homogenized using a Tekmar Tissumizer at full speed for 10 seconds. Phenylmethylsulfonyl fluoride (PMSF, 50 mM in 2-propanol) was added to the buffer immediately prior to homogenization to give a final PMSF concentration of 50 μM. The homogenate was centrifuged at 12,000×g for 10 minutes at 4° C. The supernatant was filtered through gauze and glass wool and then applied to a 17×1.5 cm column of DEAE-Sepharose CL-6B, pre-equilibrated with homogenization buffer, at 4° C. A flow rate of 1 ml/min was used. After the supernatant had passed through the column, the column is washed with a volume of homogenization buffer at least two times that of the supernatant. […] Fractions were saved based on specific PDEIV activity, determined by [3H]cAMP hydrolysis and the ability of a […]. […]
The reaction tubes were shaken and placed in a water bath (37° C.) for 10 minutes, at which time the reaction was stopped by placing the tubes in a boiling water bath for 2 minutes. […] After vortexing, 1 ml of the elution was added to 3 ml Atomlight scintillation fluid in an appropriate vial, vortexed, and counted for [3H].
Percent inhibition is determined by the formula: [formula] […]

As a reminder, the ED50 is the dose at which the effect has come halfway, by size or by number of responders. In the case of `COc1ccc(C2CNC(=O)NC2)cc1O[C@H]1C[C@@H]2CC[C@H]1C2` (relative stereo) [5-(3-(exo-bicyclo[2.2.1]hept-2-yloxy)-4-methoxyphenyl)-3,4,5,6-tetrahydropyrimidin-2(1H)-one], the median effective dose (ED50) in test [1] came out at 10 mg/kg. The “intensity and area of blue spots (skin edema) at antigen-challenged sites vs vehicle-dosed animals” value in test [2] is “markedly reduced”. Moreover, in test [3], the “in vitro activity as an inhibitor of phosphodiesterases” value is recorded as “possesses in vitro activity as an inhibitor”. Besides, the IC50 in test [4] came out at 500 nM.
